Earlier results as cited in US20080221127A1, “PPAR ACTIVE COMPOUNDS” (Plexxikon Inc, priority 2007, published 2008).

Legend:
PPARδ = biological target: T1, PPARδ (Homo sapiens, UniProt Q03181)
T1 sequence (Q03181 1-441): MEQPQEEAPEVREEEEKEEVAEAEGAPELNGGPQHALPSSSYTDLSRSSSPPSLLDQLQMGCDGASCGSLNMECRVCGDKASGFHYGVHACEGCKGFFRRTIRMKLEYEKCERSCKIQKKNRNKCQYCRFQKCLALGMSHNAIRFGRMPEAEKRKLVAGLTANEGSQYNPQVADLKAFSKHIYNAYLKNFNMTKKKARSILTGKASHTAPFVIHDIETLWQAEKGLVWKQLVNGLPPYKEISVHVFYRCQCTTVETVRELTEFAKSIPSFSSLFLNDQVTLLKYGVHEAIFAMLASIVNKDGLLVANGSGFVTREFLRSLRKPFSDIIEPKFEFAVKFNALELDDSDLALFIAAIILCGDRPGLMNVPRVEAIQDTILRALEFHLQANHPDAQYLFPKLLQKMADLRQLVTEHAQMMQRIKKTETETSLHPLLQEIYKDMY

murine PPARα = biological target: T2, murine PPARα (Mus musculus, UniProt P23204)
T2 sequence (P23204 1-468): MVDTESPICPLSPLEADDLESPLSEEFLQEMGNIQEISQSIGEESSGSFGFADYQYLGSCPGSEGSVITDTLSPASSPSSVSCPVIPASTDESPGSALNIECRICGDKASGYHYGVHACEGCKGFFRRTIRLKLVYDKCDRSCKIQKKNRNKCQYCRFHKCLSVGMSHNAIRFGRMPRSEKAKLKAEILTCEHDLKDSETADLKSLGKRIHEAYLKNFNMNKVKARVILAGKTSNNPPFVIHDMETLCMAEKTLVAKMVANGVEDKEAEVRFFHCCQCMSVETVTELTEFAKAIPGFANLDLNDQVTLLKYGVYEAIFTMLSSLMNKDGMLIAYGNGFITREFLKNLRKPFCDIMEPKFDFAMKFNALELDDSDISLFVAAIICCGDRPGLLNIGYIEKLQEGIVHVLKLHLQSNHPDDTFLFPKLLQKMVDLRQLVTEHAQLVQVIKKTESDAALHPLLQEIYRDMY

Q: With `CCCc1c(OCCCOc2ccc(OCC(=O)O)cc2)ccc(C(C)=O)c1O` [L-165041] as the molecule, how does the “agonist selectivity for PPARδ over PPARγ” value (PPARδ) read?
A: The value was “approximately 30 fold”.

Q: And the “activity on murine PPARα” value (murine PPARα)?
A: The value was “inactive”.
